Ten compounds from ChEMBL document CHEMBL1201862, “PubChem BioAssay data set” (2004) can be followed below.

SMILES strings stand for the structures. Calls of active or inactive are those of the source.

The term EC50 denotes the concentration giving half of the maximal effect. As usually defined, the IC50 is the concentration at which inhibition is half-maximal. The AC50 is the midpoint of the concentration-response curve, whichever way the signal moves.

In one test the target is Troponin, cardiac muscle (Homo sapiens, UniProt P19429+P45379+P63316). The experiment in a line: Fluorescence-based biochemical high throughput dose response assay for activators of the calcium sensitivity of cardiac Regulated Thin Filaments (RTF). [Related pubchem assays (depositor defined):AID493008, AID493018, AID504382, AID504383]. The format is protein-complex assay.

The target of test [1] is G-protein coupled receptor 55 (Homo sapiens, UniProt Q9Y2T6). In words: GPR55 antagonists blocking LPI-driven arrestin recruitment, primary screen, imaging, U2OS, beta-arrestin-GFP, LPI agonist (AID 2013).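 Further: antagonist potency measured as reduced agonist-driven arrestin aggregation.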 The format is functional.
Test [2] concerns the target T1, Carboxy-terminal domain RNA polymerase II polypeptide A small phosphatase 1 (Homo sapiens, UniProt Q9GZU7).
T1 sequence (Q9GZU7 whole entry): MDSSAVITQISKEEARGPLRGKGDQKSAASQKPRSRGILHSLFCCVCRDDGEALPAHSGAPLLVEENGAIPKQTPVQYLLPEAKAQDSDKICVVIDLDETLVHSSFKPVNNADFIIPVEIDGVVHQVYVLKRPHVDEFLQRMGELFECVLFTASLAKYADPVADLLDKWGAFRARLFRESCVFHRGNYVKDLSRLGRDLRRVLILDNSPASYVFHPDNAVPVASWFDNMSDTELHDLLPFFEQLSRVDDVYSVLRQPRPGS
The experiment in a line: inhibitors of CTDSP1, concentration-response testing, biochemical assay, absorbance-based, actives from ultra-high-throughput screening (AID 540297). The format is functional.

A further test addresses Bcl-2-like protein 10 (Homo sapiens, UniProt Q9HD36). The experiment in a line: displacers of TR3 peptide from Bcl-B, primary screen, selectivity assay for Bfl-1 inhibitor project, biochemical, fluorescence polarization, FITC-TR3 peptide (AID 748).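 Further: fluorescence polarization from a fluorescein-labelled TR3 peptide binding purified Bcl-B.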 In general terms: In fluorescence polarisation assays a small probe gives low polarisation when free and higher when bound to something large.

The target of test [3] is DNA dC->dU-editing enzyme APOBEC-3A (Homo sapiens, UniProt P31941). The experiment in a line: Dose Response confirmation of small molecule APOBEC3A DNA Deaminase Inhibitors via a fluorescence-based single-stranded DNA deaminase assay. [Related pubchem assays (depositor defined):AID493011, AID493024]. In kind it is functional.
For test [4], the target named is DNA dC->dU-editing enzyme APOBEC-3G (Homo sapiens, UniProt Q9HC16). In kind it is functional.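 Further: Dose-response counterscreen measuring inhibition of APOBEC3G DNA deaminase activity, run while confirming APOBEC3A inhibitors.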
Test [5] deals with DNA damage-inducible transcript 3 protein (Mus musculus, UniProt P35639). In kind it is functional, Cricetulus griseus.
For the next test, the target named is T2, Streptokinase A (Streptococcus pyogenes serotype M1, UniProt P10520).
T2 sequence (P10520 whole entry): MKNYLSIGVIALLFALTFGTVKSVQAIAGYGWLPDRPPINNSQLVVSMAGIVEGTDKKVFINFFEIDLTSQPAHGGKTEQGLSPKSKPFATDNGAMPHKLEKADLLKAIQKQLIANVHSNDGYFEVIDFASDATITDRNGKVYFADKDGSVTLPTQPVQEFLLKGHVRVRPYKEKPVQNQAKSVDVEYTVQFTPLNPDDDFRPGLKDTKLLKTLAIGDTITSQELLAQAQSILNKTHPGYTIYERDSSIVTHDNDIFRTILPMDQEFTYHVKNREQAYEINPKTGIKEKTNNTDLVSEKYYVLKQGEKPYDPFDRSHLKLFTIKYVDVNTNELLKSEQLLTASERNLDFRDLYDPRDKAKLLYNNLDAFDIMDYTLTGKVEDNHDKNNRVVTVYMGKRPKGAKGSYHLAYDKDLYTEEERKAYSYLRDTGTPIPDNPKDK
In words: S. pyogenes streptokinase expression inhibitors, potency, dose response, plasminogen activation absorbance, OD405 (AID 1914).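 Further: secreted streptokinase activity via plasminogen activation per viability signal from cell pellet.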 The format is functional, Streptococcus pyogenes M1 GAS.

Another test has as its system Streptococcus. In words: Group A Streptococcus viability loss, dose response, counter-screen for streptokinase expression inhibitor project, luminescence, BacTiterGlo (AID 1915).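 Further: potency for reduction of bacterial viability or growth.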 In kind it is functional, organism-based. In general terms: A counterscreen serves to expose hits that act by an unwanted route or on another target.
The next test in a line: cells. The format is functional, cell-based.
The subject of test [6] is Streptococcus sp. 'group A'. In words: growth inhibition of control SK(-) GAS strain, dose response, counter-screen for streptokinase expression inhibitor project, luminescence, kanamycin, BacTiterGlo, confirmation (AID 1900). The format is functional, organism-based.
The test system of another test is HeLa. In words: HeLa cell cytotoxicity, dose response, cytotoxicity control for MITF activator project, CellTiter-Glo luminescence, cherry-pick samples (AID 540259). The format is functional, cell-based. The settings on record: Homo sapiens. In general terms: ATP-based viability assays read luminescence as a measure of living cells.
In test [7] the target is T3, Nuclear receptor subfamily 0 group B member 1 (Homo sapiens, UniProt P51843).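 Further: HEK293T cells transfected with SF-1 and DAX-1 plus StAR promoter luciferase reporter.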
T3 sequence (P51843 whole entry): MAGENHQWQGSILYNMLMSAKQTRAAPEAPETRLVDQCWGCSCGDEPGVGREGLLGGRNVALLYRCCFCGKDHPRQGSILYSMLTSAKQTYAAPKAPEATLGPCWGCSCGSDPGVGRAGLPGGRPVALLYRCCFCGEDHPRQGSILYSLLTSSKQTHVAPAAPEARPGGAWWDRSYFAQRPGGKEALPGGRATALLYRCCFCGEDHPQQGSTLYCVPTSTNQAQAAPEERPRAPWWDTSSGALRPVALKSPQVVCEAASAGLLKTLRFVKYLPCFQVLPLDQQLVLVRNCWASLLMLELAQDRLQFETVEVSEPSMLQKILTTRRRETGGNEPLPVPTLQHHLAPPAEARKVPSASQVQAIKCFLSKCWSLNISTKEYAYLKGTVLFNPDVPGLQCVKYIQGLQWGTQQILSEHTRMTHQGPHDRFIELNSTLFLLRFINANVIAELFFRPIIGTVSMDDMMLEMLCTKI
In kind it is functional, cell-based.

The target in test [8] is CAAX prenyl protease 2 (Saccharomyces cerevisiae S288c, UniProt Q03530). The format is biochemical.
The next test deals with Cytochrome P450 2C9 (Homo sapiens, UniProt P11712).
Another test deals with Cytochrome P450 2C19 (Homo sapiens, UniProt P33261). The experiment in a line: Cytochrome panel assay with activity outcomes. Panel member name: p450-cyp2c19 Compounds with AC50 equal or less than 10 uM are considered active. In kind it is functional. The settings on record: read-out: AC50.
The target of the next test is Trypsin (Sus scrofa, UniProt P00761). In words: porcine trypsin inhibitors, dose response, selectivity assay for Rce1 protease inhibitor project, biochemical, quenched peptide fluorescence, cherry-pick (AID 488789).
Test [9] addresses T4, CAAX prenyl protease 2 (Homo sapiens, UniProt Q9Y256).
T4 sequence (Q9Y256 whole entry): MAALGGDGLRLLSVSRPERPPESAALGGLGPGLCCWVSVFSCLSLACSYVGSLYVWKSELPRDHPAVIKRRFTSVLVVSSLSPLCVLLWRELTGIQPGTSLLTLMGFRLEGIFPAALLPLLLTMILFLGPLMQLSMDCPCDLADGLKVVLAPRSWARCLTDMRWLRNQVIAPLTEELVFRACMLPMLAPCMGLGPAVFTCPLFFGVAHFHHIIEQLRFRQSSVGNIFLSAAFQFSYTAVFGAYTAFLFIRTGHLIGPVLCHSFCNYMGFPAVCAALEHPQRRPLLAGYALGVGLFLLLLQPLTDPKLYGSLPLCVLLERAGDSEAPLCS
The experiment in a line: human Rce1 protease inhibitors, dose response, biochemical, yeast membranes, quenched-peptide fluorescence, cherry-pick (AID 588849).

The next test deals with Cytochrome P450 3A4 (Homo sapiens, UniProt P08684).
For a further test, the target named is T5, X-box-binding protein 1 (Homo sapiens, UniProt P17861).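 Further: confirmatory dose-response counter-screen serving a CHOP assay.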
T5 sequence (P17861 whole entry): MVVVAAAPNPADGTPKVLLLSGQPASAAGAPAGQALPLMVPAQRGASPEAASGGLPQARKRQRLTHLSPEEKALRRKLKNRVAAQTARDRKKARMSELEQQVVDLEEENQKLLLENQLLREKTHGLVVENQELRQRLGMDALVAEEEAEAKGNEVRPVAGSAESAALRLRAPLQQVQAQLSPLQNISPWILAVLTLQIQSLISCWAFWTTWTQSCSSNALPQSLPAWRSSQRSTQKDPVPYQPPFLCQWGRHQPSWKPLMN
The format is functional, Cricetulus griseus.

The target in test [10] is T6, Ubiquitin-conjugating enzyme E2 N (Homo sapiens, UniProt P61088).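 Further: Dose-response confirmation in a TR-FRET assay detecting UBC13-driven polyubiquitin chain formation, inhibition measured.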
T6 sequence (P61088 whole entry): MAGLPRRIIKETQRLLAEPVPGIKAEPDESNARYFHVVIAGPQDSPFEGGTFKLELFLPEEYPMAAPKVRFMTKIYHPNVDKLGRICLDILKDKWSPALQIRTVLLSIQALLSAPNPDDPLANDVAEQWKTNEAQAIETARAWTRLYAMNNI
The format is functional.

The target in test [11] is Peroxisome proliferator-activated receptor gamma/Nuclear receptor coactivator 3 (Homo sapiens, UniProt P37231). In words: TR-FRET dose response biochemical High Throughput Screening assay for agonists of the steroid receptor coactivator 3 (SRC-3) recruitment by the peroxisome proliferator-activated receptor gamma (PPAR gamma): non-selective agonists. [Related pubchem assays: 1301 (Confirmation screen.), 1048 (Primary screen.)]. In kind it is functional.

Test [12] has as its target Peroxisome proliferator-activated receptor gamma/Nuclear receptor coactivator 2 (Homo sapiens, UniProt P37231). The experiment in a line: TR-FRET dose response biochemical High Throughput Screening assay for agonists of the steroid receptor coactivator 2 (SRC-2) recruitment by the peroxisome proliferator-activated receptor gamma (PPAR gamma): non-selective agonists. [Related pubchem assays: 1297, 1032 ]. In kind it is functional.

The target of test [13] is Peroxisome proliferator-activated receptor gamma/Nuclear receptor coactivator 1 (Homo sapiens, UniProt P37231). The experiment in a line: TR-FRET dose response biochemical High Throughput Screening assay for agonists of the steroid receptor coactivator 1 (SRC-1) recruitment by the peroxisome proliferator-activated receptor gamma (PPAR gamma): non-selective agonists. [Related pubchem assays (depositor defined):AID1300, AID1808, AID504735, AID631]. The format is protein assay.

Chain of DNA dC->dU-editing enzyme APOBEC-3A (P31941 whole entry): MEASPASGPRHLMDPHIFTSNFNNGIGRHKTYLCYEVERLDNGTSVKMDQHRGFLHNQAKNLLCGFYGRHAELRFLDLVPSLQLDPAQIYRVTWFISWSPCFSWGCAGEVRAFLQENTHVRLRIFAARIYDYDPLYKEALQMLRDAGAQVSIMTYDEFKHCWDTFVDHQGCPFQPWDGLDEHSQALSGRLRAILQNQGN
Chain of DNA dC->dU-editing enzyme APOBEC-3G (Q9HC16 whole entry): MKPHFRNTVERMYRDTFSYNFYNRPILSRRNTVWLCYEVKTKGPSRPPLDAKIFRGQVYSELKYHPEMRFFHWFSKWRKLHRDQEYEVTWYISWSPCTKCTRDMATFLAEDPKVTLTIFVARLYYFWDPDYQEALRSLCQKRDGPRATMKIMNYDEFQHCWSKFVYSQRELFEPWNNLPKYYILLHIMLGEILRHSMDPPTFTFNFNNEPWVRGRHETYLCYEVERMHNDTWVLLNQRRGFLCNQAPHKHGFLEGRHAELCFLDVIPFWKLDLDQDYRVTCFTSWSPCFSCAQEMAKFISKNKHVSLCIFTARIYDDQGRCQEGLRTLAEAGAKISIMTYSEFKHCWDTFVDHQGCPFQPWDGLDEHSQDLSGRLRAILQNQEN
Chain of DNA damage-inducible transcript 3 protein (P35639 whole entry): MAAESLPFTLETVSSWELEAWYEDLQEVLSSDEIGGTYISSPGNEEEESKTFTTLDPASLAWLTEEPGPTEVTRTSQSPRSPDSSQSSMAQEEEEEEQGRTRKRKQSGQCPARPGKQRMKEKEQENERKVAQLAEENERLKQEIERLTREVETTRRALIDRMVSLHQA
Chain of G-protein coupled receptor 55 (Q9Y2T6 whole entry, the tested form may be a part): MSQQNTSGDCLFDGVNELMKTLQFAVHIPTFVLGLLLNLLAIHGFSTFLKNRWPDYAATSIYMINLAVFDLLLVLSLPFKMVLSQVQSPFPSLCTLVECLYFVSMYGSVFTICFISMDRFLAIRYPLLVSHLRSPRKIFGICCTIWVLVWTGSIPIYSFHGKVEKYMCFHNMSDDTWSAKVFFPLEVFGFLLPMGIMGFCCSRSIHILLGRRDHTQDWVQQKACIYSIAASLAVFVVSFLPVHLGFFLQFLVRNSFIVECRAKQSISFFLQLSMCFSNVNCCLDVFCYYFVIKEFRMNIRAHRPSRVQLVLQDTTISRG
Chain of CAAX prenyl protease 2 (Saccharomyces cerevisiae S288c, UniProt Q03530) (Q03530 whole entry): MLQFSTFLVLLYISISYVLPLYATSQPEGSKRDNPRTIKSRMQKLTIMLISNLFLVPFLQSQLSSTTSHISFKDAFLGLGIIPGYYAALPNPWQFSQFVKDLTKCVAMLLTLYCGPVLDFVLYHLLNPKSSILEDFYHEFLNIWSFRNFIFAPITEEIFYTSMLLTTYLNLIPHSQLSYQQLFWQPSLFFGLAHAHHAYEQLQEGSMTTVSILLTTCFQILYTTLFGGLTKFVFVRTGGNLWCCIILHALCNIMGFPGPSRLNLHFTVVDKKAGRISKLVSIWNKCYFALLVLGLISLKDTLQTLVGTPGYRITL
Chain of Trypsin (P00761 whole entry): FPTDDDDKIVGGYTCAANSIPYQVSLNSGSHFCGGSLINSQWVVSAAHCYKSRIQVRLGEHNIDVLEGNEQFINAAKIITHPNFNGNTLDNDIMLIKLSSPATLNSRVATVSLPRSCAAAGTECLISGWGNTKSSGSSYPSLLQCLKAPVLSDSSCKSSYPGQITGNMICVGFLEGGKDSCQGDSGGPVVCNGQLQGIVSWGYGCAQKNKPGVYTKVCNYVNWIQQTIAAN
Chain of Cytochrome P450 2C19 (P33261 whole entry): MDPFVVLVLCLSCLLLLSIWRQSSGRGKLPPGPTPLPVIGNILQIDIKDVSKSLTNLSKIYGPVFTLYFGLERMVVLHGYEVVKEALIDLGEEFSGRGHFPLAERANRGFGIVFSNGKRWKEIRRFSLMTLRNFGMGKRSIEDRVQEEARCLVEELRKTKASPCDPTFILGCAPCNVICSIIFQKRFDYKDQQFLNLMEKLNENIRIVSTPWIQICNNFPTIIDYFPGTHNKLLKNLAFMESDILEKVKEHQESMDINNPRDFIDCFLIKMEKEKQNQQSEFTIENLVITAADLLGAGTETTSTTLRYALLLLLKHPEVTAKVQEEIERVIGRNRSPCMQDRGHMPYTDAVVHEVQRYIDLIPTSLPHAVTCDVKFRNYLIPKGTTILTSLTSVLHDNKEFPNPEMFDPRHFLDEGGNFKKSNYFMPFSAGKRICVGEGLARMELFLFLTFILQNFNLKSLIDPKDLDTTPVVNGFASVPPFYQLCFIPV
Chain of Cytochrome P450 3A4 (P08684 whole entry): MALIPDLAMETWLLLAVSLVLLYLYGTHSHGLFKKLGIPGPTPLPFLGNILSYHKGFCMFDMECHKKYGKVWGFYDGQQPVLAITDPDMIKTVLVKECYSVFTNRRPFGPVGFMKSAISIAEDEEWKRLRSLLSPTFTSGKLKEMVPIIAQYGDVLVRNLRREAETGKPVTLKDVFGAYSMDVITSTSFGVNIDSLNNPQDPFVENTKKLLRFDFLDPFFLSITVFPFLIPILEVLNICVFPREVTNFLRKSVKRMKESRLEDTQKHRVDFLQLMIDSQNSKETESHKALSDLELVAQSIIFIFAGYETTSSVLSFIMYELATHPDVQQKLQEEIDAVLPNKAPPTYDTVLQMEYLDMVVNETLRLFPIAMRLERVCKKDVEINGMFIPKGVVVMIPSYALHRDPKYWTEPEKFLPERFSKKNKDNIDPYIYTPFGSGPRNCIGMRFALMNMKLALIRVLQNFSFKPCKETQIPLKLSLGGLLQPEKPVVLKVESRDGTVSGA
Chain of Cytochrome P450 2C9 (P11712 whole entry): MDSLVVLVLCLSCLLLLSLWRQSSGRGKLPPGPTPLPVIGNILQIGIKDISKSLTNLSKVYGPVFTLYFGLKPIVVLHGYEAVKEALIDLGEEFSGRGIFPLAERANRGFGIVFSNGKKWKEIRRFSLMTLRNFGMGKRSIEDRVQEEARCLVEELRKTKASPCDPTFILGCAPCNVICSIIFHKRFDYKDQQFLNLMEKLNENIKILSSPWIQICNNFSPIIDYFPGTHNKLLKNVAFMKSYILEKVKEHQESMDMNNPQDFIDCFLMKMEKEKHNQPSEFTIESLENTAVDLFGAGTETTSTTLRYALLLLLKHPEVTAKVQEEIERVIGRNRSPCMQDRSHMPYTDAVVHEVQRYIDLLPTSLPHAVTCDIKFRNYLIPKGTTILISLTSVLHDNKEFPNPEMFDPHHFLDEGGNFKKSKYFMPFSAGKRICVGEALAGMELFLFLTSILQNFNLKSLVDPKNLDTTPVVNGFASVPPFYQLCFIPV
Chain of Bcl-2-like protein 10 (Q9HD36 whole entry): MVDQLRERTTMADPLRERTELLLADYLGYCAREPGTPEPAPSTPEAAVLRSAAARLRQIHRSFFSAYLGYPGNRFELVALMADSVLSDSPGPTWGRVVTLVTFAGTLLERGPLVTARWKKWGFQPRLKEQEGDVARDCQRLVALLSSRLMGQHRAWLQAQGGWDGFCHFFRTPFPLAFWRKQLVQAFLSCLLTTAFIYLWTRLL

In the case of `N#C/C(=C\c1c[nH]c2ccccc12)C(=O)Nc1ncc(Cc2ccc(Cl)cc2Cl)s1`, the EC50 at Troponin, cardiac muscle was > 71.5 µM (inactive).

`COc1ccc(N(CC(=O)Nc2nc3ccc(C)cc3s2)S(=O)(=O)c2c(C)nn(C)c2C)cc1`: the IC50 in [1] was 2.04 µM (active).

With `O=C(COC(=O)C1CCN(S(=O)(=O)c2cc([N+](=O)[O-])ccc2Cl)CC1)Nc1ncc(Cl)cc1Cl`, the IC50 in test [2] was 4.29 µM (active); at Bcl-2-like protein 10 it was 3.81 µM (active); in test [3], 17.9 µM (active); in test [4], 36.3 µM (active).

Consider `NC(=O)CC(NC(=O)Cc1cccc2ccccc12)c1ccc(NCc2cc(F)ccc2F)c([N+](=O)[O-])c1` (centres undefined), for which the “Absolute IC50 (CHOP)” value in test [5] was determined as 10 µM.

For the compound `c1ccc(-c2nc(-c3nccc4ccccc34)oc2-c2ccccc2)cc1`, the EC50 at Streptokinase A was 5.23 µM (active); with Streptococcus, > 150 µM (not active); in [6] it was > 150 µM (not active). Further, the IC50 was > 67.5 µM (inactive) in “cells”, 3.48 µM (active) in [1] and > 67.5 µM (inactive) in [7]. The AC50 in the test on HeLa is 132 µM (active).

As to `Cc1cccc(Nc2ccccc2C(=O)OCC(=O)N(C)C2CCS(=O)(=O)C2)c1C` (centres undefined), the AC50 was 3.45 µM (active) at CAAX prenyl protease 2 [8]; 39.8 µM (inconclusive) on Cytochrome P450 2C9; 28.2 µM (inconclusive) at Cytochrome P450 2C19; 15.5 µM (active) at Trypsin; 914 nM (active) on CAAX prenyl protease 2 [9]; 28.2 µM (inconclusive) at Cytochrome P450 3A4.

With `Cc1ccc(NC(=O)CN(C)c2ccc(S(=O)(=O)N3CCCC3)cn2)cc1`, at Troponin, cardiac muscle, the EC50 was > 71.5 µM (inactive).

As for `COc1ccc(C(=O)NC(C)c2nnc(SCc3ccc(Cl)c(Cl)c3)n2C)cc1` (centres undefined), the IC50 in test [3] was 3.87 µM (active); in test [4], 5.45 µM (active).

As to `Cn1nc(-c2ccccc2)cc1NC(=O)Nc1ccc(C(C)(C)C)cc1`, on X-box-binding protein 1, the “Absolute IC50 (XBP1)” value was determined as 10 µM. In addition, in test [5], the “Absolute IC50 (CHOP)” value is 10 µM.

For the compound `COc1ccc(-c2c3c(nc4sc(C(=O)Nc5ccccc5)c(N)c24)CCC3)cc1`, the IC50 in test [10] is > 20 µM (inactive). Moreover, the EC50 in test [11] is > 79.4 µM (not active); in test [12] it was > 79.4 µM (not active); in [13], > 79.4 µM (inactive).
